According to PMC5644030 (Biochemistry, 2017):

Key:
Rv3404c [1] = target: T1, Rv3404c (Mycobacterium tuberculosis, UniProt P9WKZ3)
Rv3404c [2] = target: T1, Rv3404c; remark: listed apart in the source

T1 sequence (P9WKZ3 whole entry): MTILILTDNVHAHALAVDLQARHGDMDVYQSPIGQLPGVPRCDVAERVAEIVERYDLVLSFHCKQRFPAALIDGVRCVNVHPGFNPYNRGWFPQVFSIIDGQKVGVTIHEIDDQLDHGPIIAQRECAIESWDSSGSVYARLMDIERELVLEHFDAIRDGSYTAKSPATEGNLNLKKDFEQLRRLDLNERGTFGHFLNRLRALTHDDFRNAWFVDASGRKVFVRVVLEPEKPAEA

Nc1nc2c(c(=O)[nH]1)N(C=O)[C@@H](CNc1ccc(C(=O)N[C@@H](CCC(=O)O)C(=O)O)cc1)CN2 [N5-formyl-THF]
X-ray crystallography, 1.6 Å ternary complex (Rv3404c [1]): The structure of Rv3404c in complex with N5-formyltetrahydrofolate (N5-formyl-THF) and dTDP-Qui4N was determined

Nc1nc2c(c(=O)[nH]1)N[C@@H](CN(C=O)c1ccc(C(=O)N[C@@H](CCC(=O)O)C(=O)O)cc1)CN2 [N10-formyl-THF]
HPLC and ESI mass spectrometry of product (Rv3404c [2]): Upon incubation of dTDP-Qui4N and N10-formyl-THF with Rv3404c, a peak was observed
